Source: article PMC6405172, “In vitro activity and mode of action of phenolic compounds on Leishmania donovani” (PLoS Neglected Tropical Diseases, 2019)
Read-outs that look alike come from different tables or passages of the source.

Tests used:
[1] = test system: Leishmania donovani intracellular amastigotes; experiment: Infectivity index of infected macrophages (DAPI, fluorescence microscopy); assay type: cell-based; conditions: 48 hours; for infectivity values (infectivity index): concentration not given
Method: (§1) Amastigote cultures were prepared as reported by Jain and colleagues. Briefly, Raw 264.7 cells (4 x 10^7 cells) were seeded in 4 chamber slides and 1 x 10^7 cells in 96 well plates and incubated for 24 hours at 37°C in 5% CO2. The RAW 264.7 cells were infected with metacyclic promastigotes (1 x 10^8 cells) at an infection ratio of 1:10 macrophage: parasites and incubated for 24 hours at 37°C in 5% CO2. The overlying medium was removed, and the monolayer intracellular amastigotes were carefully washed four times with serum free M199 to remove free parasites. Freshly prepared M199 containing 10% FBS and the test compounds at concentrations ranging from 0–50 μg/mL were added to the infected cells and incubated for 48 hours at 37°C in 5% CO2. Triplicate incubations were performed in all the experiments. The chamber slides were washed thrice after incubation with M199 without FBS. The slides were then fixed in absolute methanol for 30 sec, rehydrated in 1x PBS for 5 min and stained with DAPI for 15 min. The slides were viewed by fluorescence microscopy and the number of infected macrophages counted using ImageJ Software to determine the infectivity index and IC50 values for amastigotes.

[2] = test system: L. donovani promastigotes; experiment: Promastigote mitochondria integrity (MitoTracker Red CMXROS); assay type: cell-based, Leishmania donovani; conditions: 24 hours; 2x IC50 (amphotericin B 1/2 IC50)
Method: After incubation, the promastigotes were harvested and resuspended in serum-free M199/1%BSA. MitoTracker Red CMXROS (a cationic fluorescent dye that labels the mitochondria within live cells) at 100 nM was added and incubated for 30 min. Parasites were washed once with serum-free M199/1% BSA, pelleted by centrifugation at 1500 rpm for 10 min, resuspended in 1x vPBS and 6% paraformaldehyde and incubated at 4°C for 1 hour. The promastigote pellets were washed twice and resuspended in 1xPBS. The parasites were then allowed to settle on poly-L-lysine coated slides and DAPI stain (0.1μg/mL) was added followed by one wash in 1x PBS. Coverslips were mounted onto the slides using Vectashield mounting media and observed under the Olympus fluorescent microscope to detect any abnormalities in the structure of the mitochondria. The total number of parasites was determined by direct counting of parasites per field, using ImageJ Software. Parasites with distorted mitochondria were visually determined by counting parasites that had any abnormalities in the structure of the mitochondria compared to the untreated control.

[3] = test system: Leishmania donovani promastigotes; experiment: Iron content analysis by atomic absorption spectroscopy; assay type: cell-based; conditions: 24 hours; 4x IC50 (amphotericin B IC50)
Method: The parasites were then washed twice with 1x PBS and resuspended in 50 μl deionized water. An aliquot (10 μl) of the parasite suspension was used for protein content determination as described by. The remaining parasite sample (40 μl) was digested with HNO3 for 1 hour at 80°C and overnight at 20°C. Cell digestions were stopped by the addition of 30% H2O2 and topped up to 1.5 ml with deionized water. Iron content in digested samples, spent and unused media were measured by atomic absorption spectroscopy using a Perkin Elmer Analyst 300 spectrometer.

[4] = test system: Leishmania donovani intracellular amastigotes; experiment: Intracellular amastigote assay in infected RAW 264.7 cells; assay type: cell-based; conditions: for Selectivity Index (CC50/IC50), amastigotes: CC50 Raw 264.7 / IC50 intracellular amastigotes; for IC50: intracellular amastigotes in RAW 264.7 cells, 48 hours, read-out: Amastigotes IC50 (μM) ± SD
Method: as §1
The infected RAW 264.7 cells in the 96 wells microtiter plates were also incubated for 48 hours and washed thrice as above. Sodium dodecyl sulfate (SDS) of concentration 0.05% was added to the wells for 30 sec for controlled lysis with M199 and 10% FBS. After the 30 sec, M199 with 10% FBS was added and the plates incubated at 25°C for 72 hours for the differentiation of the rescued amastigotes to promastigotes. Following incubation, the amastigotes were subjected to MTT assay and the absorbance obtained were used to estimate IC50 values of the compounds against the amastigote forms.

[5] = Cytotoxicity of compounds on mammalian cells (MTT); assay type: cell-based; conditions: mouse, Raw 264.7 macrophage cells, Raw 264.7 cells, read-out: Macrophages CC50 (μM) ±SD
Method: Raw 264.7 cells were seeded into 96-well plates at (1 x 10^6 cells) in DMEM supplemented with 10% FBS, 100 μg/mL streptomycin, 100 u/mL penicillin-G, 2g/L NaHCO3 and incubated at 37°C for 24 hours in 5% CO2. The cells were treated with 0–50 μg/mL concentrations of the phenolic compounds for 48 hours at 37°C in 5% CO2. Deferoxamine and amphotericin B at 0–50 μg/mL concentrations were used as positive controls. Cell viability was estimated by measuring the mitochondria oxidative activity by MTT assay and absorbance was read at 570 nm using Thermo Scientific Varioskan LUX. Selectivity index (SI) was calculated as the ratio of the CC50 to IC50 values.

Row | Compound | infectivity index ([1]; 3.12 μg/mL) | promastigotes with mitotracker dye accumulating in the cytoplasm (distorted mitochondrion) [2] [%] | concentration of iron in the spent media [3] [mg/L] | intracellular iron levels in promastigotes [3] [mg/L] | Selectivity Index (CC50/IC50), amastigotes [4] | IC50 ([4]; Leishmania donovani, RAW264.7, 48 h) [µM] | IC50 [4] [µM] | CC50 at 48 h [5] [µM] | infectivity values (infectivity index) [1] | IC50 ([4]; Leishmania donovani, RAW264.7) [µM]
1 | C[C@@H]1[C@H](O)[C@@H](C)/C=C/C=C/C=C/C=C/C=C/C=C/C=C/[C@H](O[C@@H]2O[C@H](C)[C@@H](O)[C@H](N)[C@@H]2O)C[C@@H]2O[C@](O)(C[C@@H](O)C[C@@H](O)[C@H](O)CC[C@@H](O)C[C@@H](O)CC(=O)O[C@H]1C)C[C@H](O)[C@H]2C(=O)O [Amphotericin B, reference compound] | 56 | 99 | 0.07 | 0.15 | 2.40 | 6.491 ± 0.03 | 6.49 ± 0.03 | 15.75 ± 0.03 |  | 
2 | O=c1cc(-c2ccc(O)cc2)oc2cc(O)cc(O)c12 [Apigenin, apigenin] |  | 75.8 | 0.11 | 0.1 | 5.21 |  |  | 237.9 ± 0.03 | 152.2 | 45.66 ± 0.01
3 | CC(=O)N(O)CCCCCNC(=O)CCC(=O)N(O)CCCCCNC(=O)CCC(=O)N(O)CCCCCN [Deferoxamine, deferoxamine, reference compound] |  | 81 | 0.08 | 0.36 | 0.73 |  |  | 26.88 ± 0.02 | 177 | 36.74 ± 0.01
4 | O=C(/C=C/c1ccc(O)c(O)c1)O[C@H](Cc1ccc(O)c(O)c1)C(=O)O [Rosmarinic acid, rosmarinic acid] |  | 70 | 0.09 | 0.30 | 12.70 |  |  | 245.6 ± 0.3 | 140 | 19.21 ± 0.01
